Some results are limits rather than exact numbers.

The series is described as follows: Urinary PABA recovery (compliance marker), Example 1 trial. The format is in vivo, human. To be noted: 24 h urine, all time points; 120 mg PABA per bar, 2 bars daily. How it is done:
Subjects were then randomized in a parallel design into two groups to receive either the nutrient test bar or placebo food. Both placebo and test bars contained 120 mg PABA (para-aminobenzoic acid), urinary excretion of which was used as a measure of compliance. Subjects were asked to continue adherence to dietary restrictions described above and to consume the provided test or control product twice daily (once with breakfast and once with evening meal) over the 10 week period.
Fasting venous blood samples were collected at the start of the 10 week intervention phase and on the last week of the intervention period. Serum and EDTA plasma samples were then collected following centrifugation at 3000 rpm for 10 mins at 4° C. and aliquots stored at −80° C. prior to analysis. Twenty-four hour urine samples were also collected at a total of 6 different time points through the study to monitor PABA excretion.
33 subjects completed the study. Compliance was judged to be good as assessed by both subjective and objective measures. Briefly, subjects completed a food diary, in which labels attached to study bars were peeled off and stuck once consumed. The maximum number of bars reported to be missed was 14 during the 12 week (and therefore 168 bar) trial. This was corroborated by the urinary PABA results, which were used as an objective measure of compliance.

Regarding `Nc1ccc(C(=O)O)cc1` [PABA, para-aminobenzoic acid], the PABA recovery is > 85%.

Source of the values: patent publication US20060160753A1, “Micronutrient formulation for cognitive & mood benefits” (Conopco Inc, d/b/a UNILEVER, priority 2004, published 2006).
